The test system of series [1] is mouse femur trabecular bone. Briefly: micro CT evaluation of mouse femur trabecular structure (anti-resorptive function in vivo). The following applies: IV 184 μM×100 μL; femurs 2 weeks after injection; FIG. 14. On the procedure: FIG. 19A to FIG. 19C present evidence that certain alkylidene bisphosphonates can be used to displace active BPs in vivo in the mouse model. […] FIG. 19B outlines the protocol for the experiments using MHDP to treat C57B16 mice. An ONJ-like lesion was generated by ZOL IV injection into the mouse, followed by extraction of the maxillary first molar. One day prior to the tooth extraction, a group of mice received intra-oral injection of 2 μg MHDP and another group received IV injection of 100 μg MHDP. FIG. 19C presents images of the mouse maxilla.
This study determines the anti-resorptive function of FL-BP in vivo, as compared to ZOL. Female B6 mice were injected with 50 μM ZOL (n=6), 50 μM FL-BP (n=6) or 0.9% NaCl vehicle solution (control: n=6) via tail vein. Three weeks later, mice were euthanized and femur and L4/L5 were harvested. After fixed in 10% buffered formalin, bone samples were subjected to micro CT analysis. The anti-resorptive function were quantitatively established by the trabecular bone three-dimensional morphometry (e.g., BV/TV, Tb.N, Tb.Th, TbSp). FL-BPs with minimal or no pharmacological BP function are used.
Mice were IV injected with 0.9% NaCl (vehicle solution), ZOL (184 μM×100 μL=5.0 μg/animal) or AF647-ZOL (184 μM×100 μL=22.0 μg/animal) and femurs were harvested 2 weeks after injection. The micro CT data were compared.

For series [2], the system named is ZOL-induced mouse BRONJ model. Briefly: ZOL-induced mouse BRONJ/ONJ model (ZOL IV injection followed by maxillary first molar extraction). In kind it is in vivo. On the procedure:
AF647-ZOL was applied by intra-oral injection or IV injection 1 day prior to tooth extraction. FIG. 16B are images of mouse maxilla and the oral mucosa inflammation and swelling (white dotted lines, left and right panels) with various degrees of jawbone exposure (arrow) at the tooth extraction site of ZOL-treated mice (BRONJ control: n−4). […]
Panel A is a diagram of the experimental time line. Mice treated by IV injection of ZOL (500 μg/kg) received an intra-oral injection of AF647-ZOL, MHDP or ETI (etidronate) one day prior to maxillary 1″ molar extraction. The development of ONJ was evaluated 14 days after tooth extraction.
The C57BL/6J (B6) mice model of ONJ is used. The consistent tissue source in this study is mouse maxillary bone with or without tooth extraction, as well as femurs, mandibles and L4/L5 lumber bones. Tooth extraction animal models for studying wound healing in mice have been well established in our and other laboratories. Systemic bisphosphonate treatment is accomplished by IV injection and the proposed local application of FL-BP is accomplished by intraoral injection to gingival/palatal tissue of mouse maxilla. Mice are subjected to maxillary molar extraction. After anesthesia and vital signs checked, the animal is placed on a bed supporting the isoflurane tubing while keeping the mouth opening. Ophthalmic ointment (bland, e.g., Lacrilube) is applied. The maxillary molar area is wiped with 0.12% Chlorhexidine gluconate solution (Peridex, oral rinse). An autoclaved dental explorer is used as an exodontia elevator after careful reflection of the cervical mucosa to minimize post-extraction discomfort. An autoclaved cotton swab is placed on the extraction socket until the initial blood coagulation is established. Maxillary 1st molar is then extracted unilaterally from so that the remaining untreated side can be utilized for chewing. In our previous experiments, the entire procedure takes about 5-15 minutes. […]
In a preliminary study female B6 mice were injected 500 μg/Kg ZOL (equivalent to 200 μl of 350 μM ZOL) via tail vein and one week later, maxillary left first molar was extracted. […]
Therefore, as schematically shown in FIG. 19B mouse maxillae were treated with ZOL and then either 2 μg of MHDP was orally injected to the site of the molar to be extracted or 100 μg of MHDP was IV injected and the sites of molar extraction of treated mouse maxilla were compared to controls.

A further series has as its system mouse femurs. Briefly: AF647-ZOL signal in distant bone (femurs) in the BRONJ mouse model. In kind it is in vivo. As for the experimental part:
AF647-ZOL was applied by intra-oral injection or IV injection 1 day prior to tooth extraction. FIG. 16B are images of mouse maxilla and the oral mucosa inflammation and swelling (white dotted lines, left and right panels) with various degrees of jawbone exposure (arrow) at the tooth extraction site of ZOL-treated mice (BRONJ control: n−4).
Mice received a bolus IV injection of ZOL (440 μg/Kg; 294 μM×100 μL=8.0 μg/animal) from retro-orbital venous plexus. […] The AF647-ZOL signal in distant bone was assessed in femurs.

[3] abbreviates: AF647-ZOL IV 500 μM×100 μL 1 day before extraction, 2 weeks after extraction.

Structures are written as SMILES. Entries after “also recorded” stand apart in the source; their conditions may differ.

`CC1(C)C(C=CC=CC=C2N(CCCS(=O)(=O)O)c3ccc(S(=O)(=O)O)cc3C2(C)CCCCCC(=O)NCC(O)C[n+]2ccn(CC(O)(P(=O)(O)O)P(=O)(O)O)c2)=[N+](CCCS(=O)(=O)O)c2ccc(S(=O)(=O)O)cc21` (centres unmarked) [AF647-ZOL]: the bone structural parameters result in series [1] is reported as “did not change any of bone structural parameters”. Further, the “histology of maxilla at the tooth extraction site: ONJ-like lesion” value in series [2] (2 weeks after extraction, one time oral injection in ZOL-mice, FIG. 20) is “did not develop an ONJ-like lesion”. Besides, the “BRONJ-like lesions, jawbone exposure” value in series [2] (setting [3]) is “jawbone exposure was much attenuated; also recorded: attenuated BRONJ-like lesions”. In series [2] (setting [3]), the oral mucosa inflammation/swelling result is listed as “some mice which received an AF647-ZOL IV injection showed signs of oral mucosa inflammation/swelling”. Further, in series [2] (AF647-ZOL intra-oral 250 μM×2 μL 1 day before extraction, 2 weeks after extraction), the “prevention of BRONJ, tooth extraction wound healing” value is recorded as “complete prevention of BRONJ; also recorded: excellent tooth extraction wound healing without chronic inflammation or swelling”. The “development of ONJ-like lesions at the tooth extraction sites” value in series [2] (ZOL 500 μg/kg IV, intra-oral injection one day prior to extraction, 14 days after extraction, FIG. 21) is recorded as “appeared to be prevented”. The “AF647-ZOL signal in femurs” value in the series with mouse femurs (IV injection 500 μM×100 μL) was “clear AF647-ZOL signal; also recorded: clearly observed”; in the series on mouse femurs (intra-oral injection 250 μM×2 μL), “not and did not result in a detectable fluorescent signal”.

(Values after patent US11400104B2, “Skeletal removal of bisphosphonates” (The Regents of the University of California, priority 2016, dated 2022).)
